Experimental data published in patent publication US10342853B2, “Leptin active peptide having D helix region mutations, coding gene thereof, and application thereof” (SHANGHAI YUANXIN BIOCHEMICAL SCIENCE AND TECHNOLOGY CO. LTD., priority 2015, dated 2019).

System: 3T3-L1 preadipocyte line
Assay: In-vitro lipid-lowering (adipocyte-degrading) activity analysis, MTT detection
Format: cell-based
Procedure: Lipid degradation activity of the synthesized leptin active peptide having helix D region mutation is analyzed on a cellular level by taking a 3T3-L1 preadipocyte line as a model. Specific operations are as follows:
b: an early differentiation stage D0-D2 (0-2nd day of induced differentiation); and
c: a mature adipocyte stage D9 (the 9th day of induced differentiation);
a. leptin active peptide having helix D region mutation (PEP-D): diluted to 10^−3M with purified water and preserved at −20 degree C. for later use. After an experiment is started, working concentrations have 3 concentration gradients, that is, 10^−6M, 10^−9M and 10^−11M;
b. positive control. I: H-LEP, recombinant human-derived leptin protein (10221-HNAE, Beijing Sino Biological Inc.), diluted to 10^−6M with purified water and preserved at −20 degree C. for later use. After an experiment is started, the working concentration is 10^−9M;
c. positive control 2: Ros (Rosiglitazone, 82408, Sigma), diluted to a stock solution with a concentration of 2518 μM with DMSO and preserved at −20 degree C. for later use. After an experiment is started, the stock solution is diluted to a working solution of 0.5 μM with cell culture fluid;
d. negative control (Control): equivalent quantity of PBS
(1) Inoculating 3T3-L1 preadipocytes in corning cell bind 96-well plates (totally inoculated with 3 plates, respectively plate a, plate b and plate c), wherein the inoculation density is 4500 cells/well; and marking, and standing and culturing at 37 degree C. in a 5% CO2 incubator. Each sample of each plate is operated repeatedly for 3 times, and the whole experiment is repeated for 3 times;
(2) Continuously culturing for 48 hours after the cells are merged to 100% (enabling the cells to exit from a growth cycle, and starting induced differentiation); and
i, taking out the plate a; respectively adding different amounts of leptin active peptide having helix D region mutation (PEP-D) to enable the working concentrations to be respectively 3 concentration gradients, that is, 10^−6M, 10^−9M and 10^−11M; setting 2 positive controls, a negative control (PBS) and a blank control (3 repeated holes are set for each sample), and continuously standing and culturing at 37 degree C. in the 5% CO2 incubator.
ii, when culturing to 45 hours (that is, 3 hours before the end of drug treatment), taking out the plate a, and measuring MTT (preadipocytes). Specific operations: adding 20 μL of 5 mg/mL of MTT solution into each well, continuously standing and culturing at 37 degree C. in the 5% CO2 incubator for 3 hours, sucking and discarding the culture solution in the wells, adding 150 μL of DMSO into each well, horizontally shaking for 10 min, detecting a light absorption value at 492 nm by a microplate reader, and drawing a growth curve;
i, taking out the plate b; adding the differentiation induced liquid I (D0); respectively adding the leptin active peptide having helix D region mutation (PEP-D); setting 2 positive controls, a negative control (PBS) and a blank control (3 repeated holes are set for each sample), and continuously standing and culturing at 37 degree C. in the 5% CO2 incubator.
ii, when culturing to 45 hours (that is, 3 hours before the end of drug treatment), taking out the plate b, and measuring MTT (at the early differentiation stage, D0-D2). Specific operations: adding 20 μL, of 5 mg/mL of MTT solution into each well; continuously standing and culturing at 37 degree C. in the 5% CO2 incubator for 3 hours; sucking and discarding the culture solution in the wells; adding 150 μL of DMSO into each well; horizontally shaking for 10 min; detecting a light absorption value at 492 nm by the microplate reader; and drawing a growth curve;
i, taking out the plate c; adding the differentiation induced liquid I (D0) into each well; and continuously standing and culturing at 37 degree C. in the 5% CO2 incubator for 48 hours; […]

| Substance | adipocyte lysis activity vs. negative control (Control, PBS) (MTT, FIG. 2 mark a, P<0.05, H-LEP 10^−9M, Ros 0.5 μM) | adipocyte lysis activity vs. H-LEP (MTT, FIG. 2 mark b, P<0.05) | adipocyte lysis activity vs. Ros (MTT, FIG. 2 mark c, P<0.05) | concentration dependence of lipid-lowering activity (MTT, PEP-D at 10^−6M, 10^−9M and 10^−11M) | concentration with optimal lipid-lowering effect (MTT, of 10^−6M, 10^−9M and 10^−11M tested, on a whole) | dependence of lipid-lowering activity on cell differentiation period (MTT, preadipocytes, D0-D2, D9) | adipocyte-degrading activity compared with positive controls H-LEP and Ros (MTT, three cell differentiation stages (preadipocytes, early differentiation D0-D2, mature adipocyte D9), H-LEP 10^−9M, Ros 0.5 μM) | cell lysis effects at three stages (preadipocytes stage, differentiation stage (D0-D2), mature adipocyte stage (D9)) |
| --- | --- | --- | --- | --- | --- | --- | --- | --- |
| H-LEP: recombinant human-derived leptin protein (10221-HNAE, Beijing Sino Biological Inc.), positive control | obviously better than that of the negative control | – | – | – | – | – | – | – |
| STEVVALDGLQGSLQTMLLQLEYS (An amino acid sequence of the leptin active peptide having helix D region mutation) [PEP-D] | – | obviously better than that of the H-LEP | obviously better than that of the Ros | obvious concentration dependence | 10^−9 M | dependence in a cell differentiation period | obviously better than that of positive control-human-derived leptin protein (H-LEP) and a commercially available drug rosiglitazone (Ros) | obvious cell lysis effects |
